The values that follow come from article PMC2192493 (The Journal of Experimental Medicine, 1996).

Test [1] concerns the target T1, H-2Kd (Mus musculus, UniProt P01902). In words: Competitive inhibition of 125I-LLO. In kind it is binding. Particulars: for binding to H-2Kd (in words): peptide-binding inhibition experiments, Fig. 1.
For test [2] the following is noted: cited from earlier work.
Test [3] addresses T1, H-2Kd. Particulars: cited from earlier work.
Another test has as its system CMS1. Nature of the test: 4-h 51Cr release assay of vaccine-induced effectors, CMS1 targets. In kind it is cell-based, mouse. Particulars: separate experiment, data not shown.
A further test deals with Meth A. In words: 4-h 51Cr release assay of vaccine-induced effectors, Meth A targets. To be noted: 239CM-induced CTL; separate experiment, data not shown. The class given is cell-based, mouse.

T1 sequence (P01902 whole entry, looked up): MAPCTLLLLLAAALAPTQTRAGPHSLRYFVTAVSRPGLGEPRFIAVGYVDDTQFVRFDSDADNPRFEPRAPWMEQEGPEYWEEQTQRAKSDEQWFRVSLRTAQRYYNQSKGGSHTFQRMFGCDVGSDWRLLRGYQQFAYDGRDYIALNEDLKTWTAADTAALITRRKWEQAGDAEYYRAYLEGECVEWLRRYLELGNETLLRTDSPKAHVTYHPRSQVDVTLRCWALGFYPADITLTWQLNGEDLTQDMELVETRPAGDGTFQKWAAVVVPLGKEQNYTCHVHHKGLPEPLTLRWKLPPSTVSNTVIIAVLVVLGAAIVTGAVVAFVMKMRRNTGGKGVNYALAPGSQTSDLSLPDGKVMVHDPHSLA

Regarding “234CW: wild-type peptide p53(232-240) (KYMCNSSCM; UniProt P02340 232-240, looked up, fragment)”, in the test with H-2Kd [1], the “binding to H-2Kd (in words)” value is recorded as “capable of binding to H-2Ka”.

MTEVVRtkCP [168CW]: the “immunogenicity (in words)” value in test [2] is “lack of immunogenicity”.

For the substance “GFKDGNEYI [LLO(Y2F), reference compound]”, the “relative binding to H-2Kd (in words)” value at H-2Kd [1] (compared with other peptides in the same assay) is “comparable to that of the parent peptide”.

In the case of GYKDGNEYI [LLO], the “binding affinity to H-2Kd (in words)” value at H-2Kd [3] is “high affinity”.

As to LFCQLAKTC [132CW], the “immunogenicity (in words)” value in test [2] is “lack of immunogenicity”.

Turning to KYMCNSSFM [239CM], in the test on CMS1, the “induction of CTL reactive against CMS1” value is “induced CTL reactive against CMS1”. Moreover, the “binding to H-2Kd (in words)” value at H-2Kd [1] is listed as “capable of binding to H-2Ka”. For the same substance, in the test with Meth A, the “induction of CTL reactive against Meth A” value is “not Meth A”.

For the substance MTGVVR.R.CP [168CM], the “immunogenicity (in words)” value in test [2] is reported as “lack of immunogenicity”.

As to LFFQLAKTC [132CM], the “immunogenicity (in words)” value in test [2] is recorded as “lack of immunogenicity”.
